In ChEMBL document CHEMBL6096654, “Allosteric inhibition of PTP1B by bromocatechol-chalcone derivatives” (Eur J Med Chem, 2025):
pIC50, pKd, pKi: −log10 of the molar value. The source made the active and inactive calls. The rule behind the calls is not given here.

Legend:
[1] = target: T1, Tyrosine-protein phosphatase non-receptor type 2 (Homo sapiens, UniProt P17706); assay: Inhibition of TCPTP (unknown origin) using pNPP as substrate incubated for 30 mins by spectrophotometry
T1 sequence (P17706 whole entry): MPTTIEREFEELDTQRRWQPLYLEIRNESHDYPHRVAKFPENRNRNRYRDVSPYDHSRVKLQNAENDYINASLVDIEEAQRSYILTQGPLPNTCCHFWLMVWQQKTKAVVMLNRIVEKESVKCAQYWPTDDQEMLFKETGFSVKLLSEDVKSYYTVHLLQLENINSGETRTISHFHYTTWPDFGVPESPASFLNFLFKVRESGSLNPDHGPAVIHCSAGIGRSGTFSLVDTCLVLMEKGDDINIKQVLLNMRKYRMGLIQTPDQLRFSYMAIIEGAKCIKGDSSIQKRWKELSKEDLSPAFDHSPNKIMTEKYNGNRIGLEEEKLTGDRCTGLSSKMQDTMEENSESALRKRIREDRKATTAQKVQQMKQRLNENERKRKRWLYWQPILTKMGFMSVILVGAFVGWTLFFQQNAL

[2] = target: T2, Tyrosine-protein phosphatase non-receptor type 1 (Homo sapiens, UniProt P18031); assay: Allosteric inhibition of recombinant human PTP1B (1 to 321 residues) using pNPP as substrate preincubated for 5 mins followed by substrate addition measured after 10 mins
T2 sequence (P18031 whole entry): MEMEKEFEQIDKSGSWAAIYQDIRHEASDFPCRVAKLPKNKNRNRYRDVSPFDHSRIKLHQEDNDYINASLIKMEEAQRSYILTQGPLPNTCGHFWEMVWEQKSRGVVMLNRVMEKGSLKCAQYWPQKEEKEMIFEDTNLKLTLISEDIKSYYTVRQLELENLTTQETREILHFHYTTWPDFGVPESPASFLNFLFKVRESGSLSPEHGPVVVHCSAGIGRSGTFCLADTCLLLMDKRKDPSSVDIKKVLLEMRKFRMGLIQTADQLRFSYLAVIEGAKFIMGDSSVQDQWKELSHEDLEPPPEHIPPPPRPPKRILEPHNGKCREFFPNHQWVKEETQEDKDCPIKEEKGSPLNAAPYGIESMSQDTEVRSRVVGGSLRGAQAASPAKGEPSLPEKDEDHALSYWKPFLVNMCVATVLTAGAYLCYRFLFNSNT

[3] = target: T2, Tyrosine-protein phosphatase non-receptor type 1; assay: Binding affinity to PTP1B (unknown origin) assessed as dissociation constant by SPR analysis
[4] = tested on: HepG2; assay: Inhibition of insulin-resistance in insulin-resistant human HepG2 cells assessed as increase in insulin receptor phosphorylation pretreated for 24 hrs followed by compound washout and further addition of insulin measured after 20 mins by Western blot analysis; type: functional, cell-based; details: dose 0.625-2.5 µM
[5] = tested on: 3T3-L1; assay: Inhibition of insulin-resistance in insulin-resistant mouse 3T3-L1 cells assessed as increase in insulin receptor phosphorylation pretreated for 24 hrs followed by compound washout and further addition of insulin measured after 20 mins by Western blot analysis; type: functional, cell-based; details: dose 0.625-2.5 µM
[6] = tested on: HepG2; assay: Inhibition of insulin-resistance in insulin-resistant human HepG2 cells assessed as increase in AKT phosphorylation pretreated for 24 hrs followed by compound washout and further addition of insulin measured after 20 mins by Western blot analysis; type: functional, cell-based; details: dose 0.625-2.5 µM
[7] = tested on: 3T3-L1; assay: Inhibition of insulin-resistance in insulin-resistant mouse 3T3-L1 cells assessed as increase in AKT phosphorylation pretreated for 24 hrs followed by compound washout and further addition of insulin measured after 20 mins by Western blot analysis; type: functional, cell-based; details: dose 0.625-2.5 µM
[8] = tested on: Hepatocyte; assay: Inhibition of insulin-resistance in insulin-resistant C57BL/J mouse […] primary hepatocytes assessed as increase in AKT phosphorylation pretreated for 24 hrs followed by compound washout and further addition of insulin measured after 20 mins by Western blot analysis; type: functional, cell-based; details: dose 0.625-2.5 µM
[9] = tested on: HepG2; assay: Induction of glucose uptake in human HepG2 cells cultured in low glucose medium containing compound for 24 hrs; type: functional, cell-based; details: dose 0.625-2.5 µmol/L
[10] = tested on: 3T3-L1; assay: Induction of glucose uptake in mouse 3T3-L1 cells cultured in low glucose medium containing compound for 24 hrs; type: functional, cell-based; details: dose 0.625-2.5 µmol/L
[11] = tested on: C2C12; assay: Induction of glucose uptake in mouse C2C12 cells cultured in low glucose medium containing compound for 24 hrs; type: functional, cell-based; details: dose 0.625-2.5 µmol/L
[12] = Acute toxicity in Kunming mouse assessed as change in cell morphology of heart at 2000 mg/kg, po measured for 14 days by H and E staining based analysis; type: organism-based; details: in vivo, 336 h, time 14 day
[13] = Acute toxicity in Kunming mouse assessed as change in cell morphology of liver at 2000 mg/kg, po measured for 14 days by H and E staining based analysis; type: organism-based; details: in vivo, 336 h, time 14 day
[14] = Acute toxicity in Kunming mouse assessed as change in cell morphology of spleen at 2000 mg/kg, po measured for 14 days by H and E staining based analysis; type: organism-based; details: in vivo, 336 h, time 14 day
[15] = Acute toxicity in Kunming mouse assessed as change in cell morphology of kidney at 2000 mg/kg, po measured for 14 days by H and E staining based analysis; type: organism-based; details: in vivo, 336 h, time 14 day
[16] = Toxicity in BKD db/db mouse assessed as effect on body weight at 40 to 80 mg/kg/day, po qd for 8 weeks; type: organism-based; details: in vivo, 1344 h, dose 40-80 mg/kg/day
[17] = Toxicity in BKD db/db mouse assessed as effect on food intake at 40 to 80 mg/kg/day, po qd for 8 weeks; type: organism-based; details: in vivo, 1344 h, dose 40-80 mg/kg/day
[18] = Toxicity in BKD db/db mouse assessed as effect on liver weight at 40 to 80 mg/kg/day, po qd for 8 weeks; type: organism-based; details: in vivo, 1344 h, dose 40-80 mg/kg/day
[19] = Toxicity in BKD db/db mouse assessed as effect on para-metrial white adipose tissue weight at 40 to 80 mg/kg/day, po qd for 8 weeks; type: organism-based; details: in vivo, 1344 h, dose 40-80 mg/kg/day
[20] = Toxicity in BKD db/db mouse assessed as effect on subcutaneous fat weight at 40 to 80 mg/kg/day, po qd for 8 weeks; type: organism-based; details: in vivo, 1344 h, dose 40-80 mg/kg/day
[21] = tested on: Mus musculus; assay: Hypoglycemic activity in BKD db/db mouse assessed as decrease in blood glucose level at 40 to 80 mg/kg/day, po qd for 3 to 4 weeks; type: functional, organism-based; details: dose 40-80 mg/kg/day, time 3-4 weeks
[22] = tested on: Mus musculus; assay: Hypoglycemic activity in BKD db/db mouse assessed as increase in insulin receptor phosphorylation in skeletal muscle at 40 to 80 mg/kg/day, po for 8 weeks by Western blot analysis; type: functional, organism-based; details: dose 40-80 mg/kg/day
[23] = tested on: Mus musculus; assay: Hypoglycemic activity in BKD db/db mouse assessed as increase in insulin receptor phosphorylation in epididymal white adipose tissue at 40 to 80 mg/kg/day, po for 8 weeks by Western blot analysis; type: functional, organism-based; details: dose 40-80 mg/kg/day
[24] = tested on: Mus musculus; assay: Hypoglycemic activity in BKD db/db mouse assessed as increase in AKT phosphorylation in epididymal white adipose tissue at 40 to 80 mg/kg/day, po for 8 weeks by Western blot analysis; type: functional, organism-based; details: dose 40-80 mg/kg/day
[25] = tested on: Mus musculus; assay: Hypoglycemic activity in BKD db/db mouse assessed as reduction in lipid droplet accumulation in liver at 40 to 80 mg/kg/day, po for 8 weeks by H and E staining based analysis; type: functional, organism-based; details: dose 40-80 mg/kg/day
[26] = tested on: Mus musculus; assay: Hypoglycemic activity in BKD db/db mouse assessed as regular arrangement of liver cells at 40 to 80 mg/kg/day, po for 8 weeks by H and E staining based analysis; type: functional, organism-based; details: dose 40-80 mg/kg/day

`CCOc1ccc(Oc2ccc(C(=O)/C=C/c3cc(O)c(O)c(Br)c3Br)cc2)cc1` gave a pIC50 [1] of 4.80, a pKi [2] of 5.63 and a pKd [3] of 7.21. For the same compound, the inhibition [4] was “Dose-dependent-effect”, the inhibition [5] was “Dose-dependent-effect” and the inhibition [6] was “Dose-dependent-effect”. For the same compound, the inhibition [7] was “Dose-dependent-effect”, the inhibition [8] was “Dose-dependent-effect” and the Activity [9] was “Dose-dependent-effect”. For the same compound, the Activity [10] was “Dose-dependent-effect”, the Activity [11] was “Dose-dependent-effect” and the Activity [12] was “Non-toxic”. For the same compound, the Activity [13] was “Non-toxic”, the Activity [14] was “Non-toxic” and the Activity [15] was “Non-toxic”. The Activity [16] was “Non-toxic”, the Activity [17] was “Non-toxic” and the Activity [18] was “Non-toxic”. For the same compound, the Activity [19] was “Non-toxic”, the Activity [20] was “Non-toxic” and the Activity [21] was “Active”. The Activity [22] was “Active”, the Activity [23] was “Active” and the Activity [24] was “Active”. The Activity [25] was “Active” and the Activity [26] was “Active”.
